A word on the viability: it is a read-out of living cells in per cent, often relative to untreated cells. As a reminder, the IC50 is the concentration that gives 50% inhibition.

Data set [1] is described as follows: Cell viability, MTT assay, PC-3. Particulars: human. It counts as cell-based, human. As for the experimental part:
(§1) The cytotoxicity of crude extract and isolated compounds were evaluated against the human tumor cell lines PC-3 (prostatic carcinoma cell) and HCT-116 (colorectal carcinoma cell). Cell maintenance was performed as described in the literature. The extract and isolated compounds were tested at the concentrations of 0.05 and 50 μg/mL and 0.01 and 10 μM, respectively. Saponin digitonin (100 µM), a very potent permeabilizer of cell membranes, was used as positive control to induce 0% cell viability after 48 h of treatment.
(§2) Cell viability was determined by MTT and crystal violet (CV) assays after 48 h of incubation. Absorbance was measured using an automated microplate reader at 540 nm with a reference wavelength of 670 nm. Results are expressed as percentages relative to untreated control cultures.
A general note: Tetrazolium dyes change colour on reduction, which living cells bring about.

Data set [2] is described as follows: Cell viability, crystal violet (CV) assay, PC-3. It counts as cell-based. Particulars: human. The method, then:
as §1, §2

The nature of data set [3]: Cell viability, MTT assay, HCT-116. It counts as cell-based, human. Particulars: human. As for the experimental part:
as §1, §2

Data set [4] can be described thus: Cell viability, crystal violet (CV) assay, HCT-116. It counts as cell-based. Particulars: human. As for the experimental part: as §1, §2
Data set [5] addresses Recombinant SARS-CoV-2 PLpro (Severe acute respiratory syndrome coronavirus 2, UniProt P0DTD1). Briefly: FRET enzymatic inhibition assay, PLpro. It counts as biochemical.
Data set [6] addresses Recombinant SARS-CoV-2 3CLpro (Severe acute respiratory syndrome coronavirus 2, UniProt P0DTD1). Description: FRET enzymatic inhibition assay, 3CLpro. It counts as biochemical. Particulars: for inhibition at 1000 µM: read-out: Maximum inhibition (%) 3CLpro.
Data set [7] relates to clinical isolate of S. aureus. Set-up: method as in doi:10.1007/s43450-021-00176-z. Particulars: cited from earlier work.
In data set [8] the test system is S. aureus. Set-up: method as in doi:10.1007/s43450-021-00176-z. Particulars: cited from earlier work.
Data set [9] deals with glioblastoma multiforme. Details: method as in doi:10.1590/S0102-695X2012005000131. Particulars: cited from earlier work.
In data set [10] the test system is PC-3 (prostatic carcinoma cell). Description: Cell viability, MTT assay, PC-3. It counts as cell-based, human. Particulars: 10 µM (goyazensolide: ≤ 10 µM), 48 h, MTT and CV assays. As for the experimental part:
as §1, §2

Data set [11] relates to HCT-116 (colorectal carcinoma cell). Briefly: Cell viability, MTT assay, HCT-116. The conditions noted are these: 10 µM (goyazensolide: ≤ 10 µM), 48 h, MTT and CV assays. It counts as cell-based, human. The method, then: as §1, §2
[12] abbreviates: maximum inhibition conc. 1,000 µM (highest concentration tested).
Where [13] appears, read: 125 µg/mL (101.7 µM), positive control.
Setting [14] is: HCT-116 colorectal carcinoma cells.

“And” between values parts separate entries of the source, which are not always exact repeats. Equal entries are not always repeated. “Also recorded” adds a separate entry of the source. Where two headings read alike, the source gives them in different places.

Turning to `C=C1C(=O)OC2C=C(CO)C3=CC(=O)C(C)(CC(OC(=O)C(C)=CC)C12)O3` (stereo not drawn) [Centratherin, centratherin], the viability at 48 h, 0.01 µM amounted to 100 ± 13.5% in data set [1], 100 ± 3.6% in data set [2], 100 ± 9.6% in data set [3] and 114 ± 5.6% in data set [4]. For the same molecule, the viability at 48 h, 10 µM in [1] stood at 0%; in data set [2] it was 0%; in [3], 0%; in [4] it was 3.5 ± 9.1%. Further, the IC50 was 12 µM and 11.9 µM in [5] (Apparent IC50 PLpro); 165 µM in data set [6] (Apparent IC50 3CLpro). Further, in data set [5] (setting [12]), the “Maximum inhibition (%) PLpro” value worked out at 97%. In addition, the inhibition at 1000 µM in data set [5] (read-out: Maximum inhibition (%) PLpro, maximum inhibition conc. 1,000 µM (highest concentration tested)) was found to be 96.77 ± 0.3%; in data set [6], 89.5 ± 0.97%. Moreover, the “Concentration inhibiting clinical isolate of S. aureus” value in [7] is 32 µg/mL. The “Concentration with antibiofilm activity” value in [8] was 128 µg/mL. Further, in data set [9], the “Cytotoxic activity against glioblastoma multiforme” value is “exhibited cytotoxic activity”. The “IC50 values against glioblastoma multiforme, compared with doxorubicin” value in data set [9] is “comparable to the commercial anticancer drug doxorubicin”.

With `C[C@@H]1CC[C@@]2(OC1)O[C@H]1[C@@H](O)[C@H]3[C@@H]4CC[C@H]5C[C@@H](O[C@@H]6O[C@H](CO)[C@H](O[C@@H]7O[C@H](CO)[C@@H](O)[C@H](O[C@@H]8OC[C@@H](O)[C@H](O)[C@H]8O)[C@H]7O[C@@H]7O[C@H](CO)[C@H](O)[C@H](O[C@@H]8O[C@H](CO)[C@@H](O)[C@H](O)[C@H]8O)[C@H]7O)[C@H](O)[C@H]6O)[C@H](O)C[C@]5(C)[C@H]4CC[C@]3(C)[C@H]1[C@@H]2C` [DGTN, digitonin, reference compound], the viability at 48 h, 101.7 µM in data set [1] (setting [13]), in data set [2] (setting [13]), in data set [3] (setting [13]) and in data set [4] (setting [13]) was 0% in each case.

With `C=C(C)C(=O)OC1CC2(C)OC(=CC2=O)C(CO)=CC2OC(=O)C(=C)C21` (stereo not drawn) [Goyazensolide, goyazensolide], the viability at 48 h, 0.01 µM in data set [1] (PC-3 prostatic carcinoma cells) stood at 86.6 ± 4.7%; in [2] (PC-3 prostatic carcinoma cells), 89.5 ± 2.8%; in data set [3] (setting [14]) it was 99.6 ± 5.9%; in [4] (setting [14]), 113 ± 4%. Also, the viability at 48 h, 10 µM in data set [1] (PC-3 prostatic carcinoma cells) was found to be 100 ± 18%; in data set [2] (PC-3 prostatic carcinoma cells), 91.4 ± 1.7%; in data set [3] (setting [14]) it was 100 ± 5.8%; in data set [4] (setting [14]) it was 92.1 ± 9%. Also, the “Reduction of cell viability, PC-3” value in data set [10] is listed as “no noteworthy effects; also recorded: unable to decrease cell viability; also recorded: no such effect”. In addition, the “Reduction of cell viability, HCT-116” value in [11] is listed as “no noteworthy effects; also recorded: unable to decrease cell viability; also recorded: no such effect”. In addition, the inhibition at 1000 µM in data set [5] (maximum inhibition conc. 1,000 µM (highest concentration tested), read-out: Maximum inhibition (%) PLpro) amounted to 80.7 ± 5.9%; in data set [6] (setting [12]) it was 96.14 ± 0.01%. In addition, the IC50 in data set [5] (read-out: Apparent IC50 PLpro) is 317 µM; in data set [6] (read-out: Apparent IC50 3CLpro), 71.1 µM and 71 µM. Besides, the “Maximum inhibition (%) 3CLpro” value in [6] (setting [12]) is 96%.

Source of the values: PMC12566191, “Isolation and In Vitro Activity of Sesquiterpene Lactones from Eremanthus crotonoides as SARS-CoV-2 Protease Inhibitors and Cytotoxic Agents” (Molecules, 2025).
